The text below walks through data of patent US9828384B2, “Spiro-lactam NMDA receptor modulators and uses thereof” (Aptinyx Inc., priority 2013, dated 2017).

One test concerns LTP. In words: LTP augmentation. The conditions noted are these: LTP concentration 1 uM.
In another test the target is T1, NMDA receptor (Rattus norvegicus, UniProt P35439).
T1 construct: well washed rat cortical membranes (200 μg); from tissue; host or cells: rat cerebral cortex membranes
Nature of the test: [3H] MK-801 Binding Assay (MK-801 Glycine Site Binding Assay: Rat Cortex). The procedure:
Assays were conducted as described in Moskal et al. (Moskal, J. R., Kuo, A. G., Weiss, C., Wood, P. L., O'Connor Hanson, A., Kelso, S., Harris, R. B., Disterhoft, J. F., 2005. GLYX-13: a monoclonal antibody-derived peptide that acts as an N-methyl-D-aspartate receptor modulator. Neuropharmacology. 49, 1077-87) The potentiation of [^3H]MK-801 binding (5 nM; 22.5 Ci/mmol) to well washed rat cortical membranes (200 μg) was measured under non-equilibrium conditions (15 min @25° C.) in the presence of increasing concentrations of test compounds and 50 μM glutamate. Zero levels were determined in the absence of any glycine ligand and in the presence of 30 μM 5,7 DCKA. Maximal stimulation was measured in the presence of 1 mM glycine, and 50 μM glutamate was present in all samples. The facilitation of [^3H]MK-801 binding by tests compounds was calculated by using a 3 parameter log agonist vs. response equation (Graph pad Prism, USA) and potency (EC50, expressed in pM) and maximal activity (% maximal stimulation) were calculated for the test compound.

Test [1] in a line: Porsolt floating time inhibition. In kind it is in vivo. The conditions noted are these: 1 hour post dose.
Setting [2] is: Table 3, read-out: MK-801 Glycine Site Binding Assay: Rat Cortex EC50.

Read-outs that look alike come from different tables or passages of the source.

On to `CC(O)C(c1ncccn1)N1CC2(CCC(C)N2C(=O)OC(C)(C)C)C1=O` (centres unmarked) [Compound C-19, tert-butyl 2-(2-hydroxy-1-(pyrimidin-2-yl)propyl)-6-methyl-1-oxo-2,5-diazaspiro[3,4]octane-5-carboxylate], for which the “LTP: LTP Augmentation (%)” value in the test on LTP was 110%. At NMDA receptor (setting [2]), the EC50 came to 110 pM.
The matching figures for “2-(2-hydroxy-1-(pyrimidin-2-yl)propyl)-3,6-dimethyl-2, 5-diazaspiro[3,4]octan-1-one [Compound C-33]”: 30% and 7.13 pM.
The like results for `CC(O)C(c1ncccn1)N1C(=O)C2(CCCN2C(=O)OC(C)(C)C)C1C` (centres unmarked) [Compound C-29, tert-butyl 2-(2-hydroxy-1-(pyrimidin-2-yl)propyl)-1-methyl-3-oxo-2,5-diazaspiro[3,4]octane-5-carboxylate] were, in that order, 125% and 135 pM.
As for `C[C@@H](O)[C@@H](c1ncno1)N1CC2(CCCN2C(=O)OC(C)(C)C)C1=O` (stereo partly drawn) [Compound C-15, tert-butyl 2-((1S,2R)-2-hydroxy-1-(1,2,4-oxadiazol-5-yl)propyl)-1-oxo-2,5-diazaspiro[3,4]octane-5-carboxylate], the “Unified Activity Data: Porsolt Floating Time Inhibition (Percent)” value in test [1] (1 mg/kg PO) came out at 86%. Further, the “Unified Activity Data: LTP Augmentation (Percent)” value in the test on LTP turned out to be 120%.
`CC1N([C@@H](c2nnco2)[C@H](C)O)C(=O)C12CCCN2C(=O)OC(C)(C)C` (stereo partly drawn) [Compound C-26, tert-butyl 2-((1R, 2S)-2-hydroxy-1-(1,3,4-oxadiazol-2-yl)propyl)-1-methyl-3-oxo-2,5-diazaspiro[3,4]octane-5-carboxylate]: in the test with LTP, the “LTP: LTP Augmentation (%)” value worked out at 65%.
On to `CC(O)C(c1ncccn1)N1CC2(CCCN2)C1=O` (centres unmarked) [Compound Y, 2-(2-hydroxy-1-(pyrimidin-2-yl)propyl)-2,5-diazaspiro[3.4]octan-1-one], for which the “Unified Activity Data: Porsolt Floating Time Inhibition (Percent)” value in test [1] (3 mg/kg IV) was 92%. In the test on LTP, the “Unified Activity Data: LTP Augmentation (Percent)” value is reported as 140%. The EC50 on NMDA receptor (Table 2, read-out: MK-801 Glycine Site Binding Assay: Rat Cortex EC50) is 288 pM; on NMDA receptor (rat cortical membranes, 50 μM glutamate, read-out: potency (EC50) for potentiation of [3H]MK-801 binding), 288 pM. In addition, the Emax on NMDA receptor (maximal stimulation measured with 1 mM glycine, 50 μM glutamate) was 14%.
